# In patent publication US20130310256A1, “HERBICIDAL COMPOSITIONS COMPRISING 4-AMINO-3-CHLORO-5-FLUORO-6-(4-CHLORO-2-FLUORO-3-METHOXYPHENYL) PYRIDINE-2-CARBOXYLIC ACID OR A DERIVATIVE THEREOF AND VLCFA AND LIPID SYNTHESIS INHIBITING HERBICIDES” (DOW AGROSCIENCES LLC, priority 2008, published 2013):
# What was measured:
# [1] = test system: ECHOR; assay: Example II: in-water applied weed control, transplanted paddy rice, greenhouse; assay type: in vivo, Echinochloa oryzoides (Ard.) Fritsch (early watergrass)
# Experimental: (§1) Weed seeds or nutlets of the desired test plant species were planted in puddled soil (mud) prepared by mixing a shredded, non-sterilized mineral soil (50.5 percent silt, 25.5 percent clay, and 24 percent sand, with a pH of about 7.6 and an organic matter content of about 2.9 percent) and water at a 1:1 volumetric ratio. The prepared mud was dispensed in 365 mL aliquots into 16-ounce (oz.) non-perforated plastic pots with a surface area of 86.59 square centimeters (cm^2) leaving a headspace of 3 centimeters (cm) in each pot. Mud was allowed to dry overnight prior to planting or transplanting. Rice seeds were planted in Sun Gro MetroMix® 306 planting mixture, which typically has a pH of 6.0 to 6.8 and an organic matter content of about 30 percent, in plastic plug trays. Seedlings at the second or third leaf stage of growth were transplanted into 840 mL of mud contained in 32-oz. non-perforated plastic pots with a surface area of 86.59 cm^2 4 days prior to herbicide application. The paddy was created by filling the headspace of the pots with 2.5 to 3 cm of water. When required to ensure good germination and healthy plants, a fungicide treatment and/or other chemical or physical treatment was applied. The plants were grown for 4-22 days in a greenhouse with an approximate 14 hr photoperiod which was maintained at about 29′C during the day and 26° C. during the night. Nutrients were added as Osmocote® (19:6:12, N:P:K+ minor nutrients) at 2 g per 16-oz. pot and 4 g per 32-oz. pot. Water was added on a regular basis to maintain the paddy flood, and supplemental lighting was provided with overhead metal halide 1000-Watt lamps as necessary. The plants were employed for testing when they reached the first through fourth true leaf stage.
# (§2) Treatments consisted of the acid or esters of 4-amino-3-chloro-5-fluoro-6-(4-chloro-2-fluoro-3-methoxy-phenyl)pyridine-2-carboxylic acid (compound A) each formulated as an SC (suspension concentrate) and various herbicidal components alone and in combination. Forms of compound A were applied on an acid equivalent basis.
# (§3) The herbicidal components were applied on an active ingredient basis and included very long chain fatty acid (VLCFA) synthesis-inhibiting and fatty acid/lipid synthesis-inhibiting herbicides acetochlor (technical grade material), acetochlor+dichlormid formulateded as Topnotch®, pretilachlor (technical grade material), butachlor formulated as Butachlor EC, fentrazamide formulated as Fentrazamide EC, thiobencarb formulated as Bolero® 8EC, cafenstrole formulated as Himeadow® WP or Lapost® Flowable, benfuresate formulated as Full Shot®, anilofos (technical grade material), mefenacet (technical grade material), molinate (technical grade material), and thenylchlor (technical grade material).
# (§4) Treatment requirements for each compound or herbicidal component were calculated based upon the rates being tested, the concentration of active ingredient or acid equivalent in the formulation, an application volume of 2 mL per component per pot, and an application area of 86.59 cm^2 per pot.
# (§5) For formulated compounds, a measured amount was placed in an individual 100 or 200 mL glass vial and was dissolved in a volume of 1.25% (v/v) Agri-Dex® crop oil concentrate to obtain application solutions.
# (§6) For technical grade compounds, a weighed amount was placed in an individual 100 to 200 mL glass vial and was dissolved in a volume of acetone to obtain concentrated stock solutions. […] The concentrated stock solutions obtained were diluted with an equivalent volume of an aqueous mixture containing 2.5% (v/v) crop oil concentrate so that the final application solutions contained 1.25% (v/v) crop oil concentrate.
# (§7) Applications were made by injecting with a pipetter appropriate amounts of the application solutions, individually and sequentially, into the aqueous layer of the paddy. Control plants were treated in the same manner with the solvent blank. […]
# [2] = test system: LEFCH; assay: as above; assay type: in vivo, Leptochloa chinensis (L.) Nees (Chinese sprangletop); conditions: 19 DAA
# Experimental: as §1, §2, §3, §4, §5, §6, §7
# [3] = test system: ECHCG; assay: Example I: postemergence foliar-applied weed control, greenhouse; assay type: in vivo, Echinochloa crus-galli (L.) Beauv. (barnyardgrass); conditions: for Visual Weed Control Obs: 20 DAA
# Text: (§8) Seeds or nutlets of the desired test plant species were planted in a soil matrix prepared by mixing a loam or sandy loam soil (e.g., 28.6 percent silt, 18.8 percent clay, and 52.6 percent sand, with a pH of about 5.8 and an organic matter content of about 1.8 percent) and calcareous grit in an 80 to 20 ratio. The soil matrix was contained in plastic pots with a volume of 1 quart and a surface area of 83.6 square centimeters (cm^2). When required to ensure good germination and healthy plants, a fungicide treatment and/or other chemical or physical treatment was applied. The plants were grown for 8-22 days in a greenhouse with an approximate 14 hr photoperiod which was maintained at about 29° C. during the day and 26° C. during the night. Nutrients (Peters Excel® 15-5-15 5-Ca 2-Mg and iron chelate) were applied in the irrigation solution as needed and water was added on a regular basis. Supplemental lighting was provided with overhead metal halide 1000-Watt lamps as necessary. The plants were employed for testing when they reached the first through fourth true leaf stage.
# (§9) Treatments consisted of the acid or esters of 4-amino-3-chloro-5-fluoro-6-(4-chloro-2-fluoro-3-methoxy-phenyl)pyridine-2-carboxylic acid (Compound A), each formulated as an SC (suspension concentrate), and various herbicidal components alone and in combination. Forms of compound A were applied on an acid equivalent basis.
# (§10) Other herbicidal components were applied on an active ingredient basis and included very long chain fatty acid (VLCFA) synthesis-inhibiting and fatty acid/lipid synthesis-inhibiting herbicides acetochlor (technical grade material), acetochlor+dichlormid formulated as Topnotch®, pretilachlor (technical grade material), butachlor formulated as Butachlor EC, fentrazamide formulated as Fentrazamide EC, thiobencarb formulated as Bolero® 8EC, cafenstrole formulated as Himeadow® WP or Lapost® Flowable, benfuresate formulated as Full Shot®, dimethenamid-P formulated as Outlook®, indanofan (technical grade material), flufenacet formulated as Define® DF, mefenacet (technical grade material), S-metolachlor formulated as Dual® II Magnum, pethoxamid formulated as Successor® 600, and pyroxasulfone (technical grade material).
# (§11) Treatment requirements were calculated based upon the rates being tested, the concentration of active ingredient or acid equivalent in the formulation, and a 12 mL application volume at a rate of 187 L/ha.
# (§12) For treatments comprised of formulated compounds, measured amounts of compounds were placed individually in 25 mL glass vials and diluted in a volume of 1.25% (v/v) Agri-Dex® crop oil concentrated to obtain 12× stock solutions. […] Application solutions were prepared by adding an appropriate amount of each stock solution (e.g., 1 mL) and diluted to the appropriate final concentrations with the addition of 10 mL of an aqueous mixture of 1.25% (v/v) crop oil concentrate so that the final spray solutions contained 1.25+/−0.05% (v/v) crop oil concentrate.
# (§13) For treatments comprised of technical compounds, weighed amounts can be placed individually in 25 mL glass vials and dissolved in a volume of 97:3 v/v acetone/DMSO to obtain 12× stock solutions. […] Application solutions can be prepared by adding an appropriate amount of each stock solution (e.g., 1 mL) and diluted to the appropriate final concentrations with the addition of 10 mL of an aqueous mixture of 1.5% (v/v) crop oil concentrate so that the final spray solutions contain 1.25% (v/v) crop oil concentrate. When technical materials are used, the concentrated stock solutions can be added to the spray solutions so that the final acetone and DMSO concentrations of the application solutions are […], respectively. […]
# [4] = test system: BRAPP; assay: Example I: postemergence foliar-applied weed control, direct seeded rice weeds, greenhouse; assay type: in vivo; conditions: for Visual Weed Control (%) - 22 DAA BRAPP Obs: foliar; for Visual Weed Control Obs: 20 DAA
# Text: as §8, §9, §10, §11, §12, §13
# [5] = test system: ECHCO; assay: Example I: postemergence foliar-applied weed control, greenhouse; assay type: in vivo, Echinochloa colona (L.) Link (junglerice); conditions: for Visual Weed Control (%) - 19 DAA ECHCO Obs: foliar; for Visual Weed Control Obs: 20 DAA
# Text: as §8, §9, §10, §11, §12, §13
# [6] = test system: LEFCH; assay: as above; assay type: in vivo, Leptochloa chinensis (L.) Nees (Chinese sprangletop); conditions: for Visual Weed Control (%) - 19 DAA LEFCH Obs / Visual Weed Control (%) - 22 DAA LEFCH Obs: foliar; for Visual Weed Control Obs: 20 DAA
# Text: as §8, §9, §10, §11, §12, §13
# [7] = test system: CYPIR; assay: as above; assay type: in vivo, Cyperus iria L. (rice flatsedge); conditions: foliar
# Text: as §8, §9, §10, §11, §12, §13
# [8] = test system: CYPRO; assay: Example II: in-water applied weed control, transplanted paddy rice, greenhouse; assay type: in vivo, Cyperus rotundus L. (purple nutsedge)
# Experimental: as §1, §2, §3, §4, §5, §6, §7
# [9] = test system: ECHCG; assay: as above; assay type: in vivo, Echinochloa crus-galli (L.) Beauv. (barnyardgrass)
# Experimental: as §1, §2, §3, §4, §5, §6, §7
# [10] = test system: IPOHE; assay: Example I: postemergence foliar-applied weed control, greenhouse; assay type: in vivo, Ipomoea hederacea Jacq. (ivyleaf morningglory); conditions: 20 DAA
# Text: as §8, §9, §10, §11, §12, §13
smiles,measurement,setting,value
"COc1ccsc1CN(C(=O)CCl)c1c(C)cccc1C [Thenylchlor, 2-chloro-N-(2,6-dimethylphenyl)-N-[(3-methoxy-2-thienyl)methyl]acetamide]",pest or weed control at 135 g/ha,"[1]; Echinochloa oryzoides, 456 h, 135 gai/ha, 19 DAA, read-out: Visual Weed Control ECHOR Obs",35%
same,pest or weed control at 270 g/ha,"[1]; Echinochloa oryzoides, 456 h, 270 gai/ha, 19 DAA, read-out: Visual Weed Control ECHOR Obs",90%
same,Visual Weed Control LEFCH Obs,[2]; 135 gai/ha,15%
same,Visual Weed Control LEFCH Obs,[2]; 270 gai/ha,25%
"Cn1nc(C(F)(F)F)c(CS(=O)(=O)C2=NOC(C)(C)C2)c1OC(F)F [Pyroxasulfone, 3-[[[5-(difluoromethoxy)-1-methyl-3-(trifluoromethyl)-1H-pyrazol-4-yl]methyl]sulfonyl]-4,5-dihydro-5,5-dimethylisoxazole]",Visual Weed Control (%) - 22 DAA ECHCG Obs,"[3]; 59 gai/ha, foliar",70%
same,Visual Weed Control (%) - 22 DAA BRAPP Obs,[4]; 29.5 gai/ha,0%
same,Visual Weed Control (%) - 22 DAA BRAPP Obs,[4]; 59 gai/ha,0%
same,Visual Weed Control (%) - 22 DAA BRAPP Obs,[4]; 118 gai/ha,20%
"CCC1(CC2(c3cccc(Cl)c3)CO2)C(=O)c2ccccc2C1=O (racemic) [Indanofan, (RS)-2-[[2-(3-chlorophenyl)oxiranyl]methyl]-2-ethyl-1H-indene-1,3(2H)-dione]",Visual Weed Control (%) - 19 DAA ECHCO Obs,[5]; 37.5 gai/ha,0%
same,Visual Weed Control (%) - 19 DAA ECHCO Obs,[5]; 75 gai/ha,0%
same,Visual Weed Control (%) - 19 DAA ECHCO Obs,[5]; 150 gai/ha,35%
same,Visual Weed Control LEFCH Obs,[2]; 37.5 gai/ha,10%
same,Visual Weed Control LEFCH Obs,[2]; 75 gai/ha,20%
same,Visual Weed Control LEFCH Obs,[2]; 150 gai/ha,95%
same,Visual Weed Control (%) - 19 DAA LEFCH Obs,[6]; 37.5 gai/ha,0%
same,Visual Weed Control (%) - 19 DAA LEFCH Obs,[6]; 75 gai/ha,0%
"CN(C(=O)COc1nc2ccccc2s1)c1ccccc1 [Mefenacet, 2-(2-benzothiazolyloxy)-N-methyl-N-phenylacetamide]",pest or weed control at 300 g/ha,"[1]; Echinochloa oryzoides, 504 h, 300 gai/ha, 21 DAA, read-out: Visual Weed Control ECHOR Obs",80%
same,pest or weed control at 600 g/ha,"[1]; Echinochloa oryzoides, 504 h, 600 gai/ha, 21 DAA, read-out: Visual Weed Control ECHOR Obs",100%
same,pest or weed control at 1200 g/ha,"[1]; Echinochloa oryzoides, 504 h, 1200 gai/ha, 21 DAA, read-out: Visual Weed Control ECHOR Obs",100%
same,Visual Weed Control (%) - 22 DAA BRAPP Obs,[4]; 50 gai/ha,0%
same,Visual Weed Control (%) - 22 DAA BRAPP Obs,[4]; 100 gai/ha,0%
same,Visual Weed Control (%) - 22 DAA BRAPP Obs,[4]; 200 gai/ha,0%
same,Visual Weed Control (%) - 22 DAA CYPIR Obs,[7]; 100 gai/ha,0%
same,Visual Weed Control (%) - 22 DAA CYPIR Obs,[7]; 200 gai/ha,20%
same,Visual Weed Control (%) - 22 DAA LEFCH Obs,[6]; 50 gai/ha,10%
same,Visual Weed Control (%) - 22 DAA LEFCH Obs,[6]; 100 gai/ha,0%
"CCCCOCN(C(=O)CCl)c1c(CC)cccc1CC [Butachlor, N-(butoxymethyl)-2-chloro-N-(2,6-diethylphenyl)acetamide]",Visual Weed Control (%) - 21 DAA ECHOR Obs,[1]; 225 gai/ha,0%
same,Visual Weed Control (%) - 21 DAA ECHOR Obs,[1]; 450 gai/ha,20%
same,Visual Weed Control Obs,[3]; 112.5 gai/ha,0%
same,Visual Weed Control Obs,[3]; 225 gai/ha,0%
same,Visual Weed Control Obs,[3]; 450 gai/ha,0%
same,Visual Weed Control (%) - 21 DAA CYPRO Obs,[8]; 225 gai/ha,0%
same,Visual Weed Control (%) - 21 DAA CYPRO Obs,[8]; 450 gai/ha,0%
same,Visual Weed Control Obs,[5]; 112.5 gai/ha,0%
same,Visual Weed Control Obs,[5]; 225 gai/ha,0%
same,Visual Weed Control Obs,[5]; 450 gai/ha,0%
same,Visual Weed Control Obs,[4]; 112.5 gai/ha,0%
same,Visual Weed Control Obs,[4]; 225 gai/ha,0%
same,Visual Weed Control Obs,[4]; 450 gai/ha,0%
same,Visual Weed Control (%) - 21 DAA ECHCG Obs,[9]; 225 gai/ha,40%
same,Visual Weed Control (%) - 21 DAA ECHCG Obs,[9]; 450 gai/ha,20%
same,Visual Weed Control Obs,[10]; 112.5 gai/ha,20%
same,Visual Weed Control Obs,[10]; 450 gai/ha,30%
same,Visual Weed Control Obs,[6]; 112.5 gai/ha,0%
same,Visual Weed Control Obs,[6]; 225 gai/ha,0%
same,Visual Weed Control Obs,[6]; 450 gai/ha,0%
"CCSC(=O)N1CCCCCC1 [Molinate, S-ethyl hexahydro-1H-azepine-1-carbothioate]",pest or weed control at 1400 g/ha,"[1]; Echinochloa oryzoides, 504 h, 1400 gai/ha, 21 DAA, read-out: Visual Weed Control ECHOR Obs",55%
same,pest or weed control at 2800 g/ha,"[1]; Echinochloa oryzoides, 504 h, 2800 gai/ha, 21 DAA, read-out: Visual Weed Control ECHOR Obs",85%
